Measurements as given in US20170119824A1, “A METHOD FOR THE TREATMENT OF GLIOBLASTOMA WITH WHARTON JELLY-MESENCHYMAL STEM CELLS (WJ-MSC) DERIVED FROM HUMAN UMBILICAL CORD” (priority 2014, published 2017).

tested on: glioblastoma tumor sample collected from patient; assay: Oncoprint explant tumor culture model, drug sensitivity test with H&E, Ki67 and caspase staining; format: cell-based, human; conditions: glioma tumor samples in vitro, explant culture in artificial tumor microenvironment
Excerpt: According to one embodiment herein, Ocoprint® an explants tumor culture model to identify the anti-tumor effect of commonly used chemotherapeutics agents as well as Wharton's jelly derived mesenchymal stem cells on gliomas samples. In the laboratory, a tumor microenvironment similar to the body or physiological environment is created artificially in a dish. The tumor sample collected from patient is placed in this micro-environment in dish. Different anticancer agents including the mesenchymal stem cells derived from umbilical cord are applied on the tumor in the micro-environment. This mimics the application of these anti-cancer agents against the tumor when the tumor is in the human body. Simultaneously a control sample is maintained without any treatment or application of anti-cancer agents. After a specific treatment time or incubation the tumor samples are collected from the microenvironment and are subjected to a set of laboratory tests. […] The tests also reveal that the anti-cancer agents are able to kill tumor cells, reduce the number of tumor cells or limit the growth of tumor cells or the anti-cancer agent is converting the aggressively growing tumor cells to a programmed cell death mode.
The tests which are applied for testing effect of anti-cancer agents on the tumor are 1) Hematoxylin and eosin staining (H & E staining), 2) Ki67 is staining and 3) Caspase staining.
The Ki67 staining indicates the growth pattern of tumor cells.
According to one embodiment herein, Ocoprint® an explants tumor culture model to identify the anti-tumor effect of commonly used chemotherapeutics agents as well as Wharton's jelly derived mesenchymal stem cells on glioma's samples. In the laboratory, a tumor microenvironment similar to the body or physiological environment is created artificially in a dish. The tumor sample collected from the patient is placed in this micro-environment in dish. Different anticancer agents including the mesenchymal stem cells derived from umbilical cord are applied on the tumor in the micro-environment. […]

Row | Compound | Oncoprint sensitivity report: response of glioma samples (responders / non-responders)
1 | CNC(=O)c1cc(Oc2ccc(NC(=O)Nc3ccc(Cl)c(C(F)(F)F)c3)cc2)ccn1 [sorafenib] | have not responded
2 | Avastin: anti-cancer agent applied to the glioblastoma tumor | responded
3 | O=C1CCC(N2C(=O)c3ccccc3C2=O)C(=O)N1 (stereo not drawn) [Thalidomide] | responded
